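Grown in 96-well plates, cells were treated for 48 hours with each compound at five concentrations. Insufficient inhibition: endpoint recorded as highest concentration tested. GI50 = concentration required for 50% inhibition of growth. Definition used: TGI = concentration required for complete inhibition of growth.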
Tests used:
Assay in all cases: growth of human tumour cells (NCI), 48 h
[1] = system: SW-620 colon
[2] = system: MOLT-4 leukemia
[3] = system: ACHN renal
[4] = system: RPMI-8226 leukemia
[5] = system: UO-31 renal
[6] = system: DU-145 prostate
[7] = system: HCC-2998 colon
[8] = system: CCRF-CEM leukemia
[9] = system: LOX IMVI melanoma
[10] = system: HS 578T breast

| SMILES | GI50 [1] | TGI [1] | GI50 [2] | TGI [2] | GI50 [3] | TGI [3] | GI50 [4] | TGI [4] | GI50 [5] | TGI [5] | GI50 [6] | TGI [6] | GI50 [7] | TGI [7] | GI50 [8] | TGI [8] | GI50 [9] | TGI [9] | GI50 [10] | TGI [10] |
| --- | --- | --- | --- | --- | --- | --- | --- | --- | --- | --- | --- | --- | --- | --- | --- | --- | --- | --- | --- | --- |
| Cn1cc(-c2nc(-c3c[nH]c4ncccc34)cs2)c2cc(F)ccc21 | 2670 nM | 9.73 µM | 3.16 µM | 17 µM | 3.21 µM | 14.7 µM | 2810 nM | 48.3 µM | 2060 nM | 8.12 µM | 3.97 µM | 15.2 µM | 1980 nM | 7.59 µM | 3.04 µM | > 52.6 µM | 2480 nM | 7.06 µM | 4.23 µM | > 100 µM |
| COc1ccc2c(c1)c(-c1ccc(-c3cn(S(=O)(=O)c4ccccc4)c4ccc(OC)cc34)s1)cn2S(=O)(=O)c1ccccc1 | > 100000 nM | > 100 µM | > 100 µM | > 100 µM | > 100 µM | > 100 µM | > 100000 nM | > 100 µM | > 100000 nM | > 100 µM | > 100 µM | > 100 µM | > 100000 nM | > 100 µM | > 100 µM | > 100 µM | > 100000 nM | > 100 µM | > 100 µM | > 100 µM |
| Cn1cncc1[C@@](N)(c1ccc(Cl)cc1)c1ccc2c(c1)c(-c1cccc(Cl)c1)cc(=O)n2C | 1820 nM | 12.7 µM | 2.33 µM | 7.97 µM | 3.05 µM | 14.9 µM | 1580 nM | 9.79 µM | 1970 nM | 6.97 µM | 1.81 µM | 3.66 µM | 1790 nM | 7.08 µM | 2.54 µM | 18.8 µM | 1340 nM | 5.36 µM | 2.77 µM | 15.5 µM |
| O=C1CC(c2ccc(N3CCOCC3)cc2)(c2ccsc2)NC(=O)C1Sc1ccccc1Cl (configuration not stated) | 21600 nM | > 100 µM | 46.9 µM | > 100 µM | 47.4 µM | > 100 µM | 31600 nM | > 100 µM | 34400 nM | > 100 µM | 85 µM | > 100 µM | > 100000 nM | > 100 µM | 6 µM | > 100 µM | 31500 nM | > 100 µM | 3.66 µM | > 100 µM |
| Oc1ccc2cc(Br)ccc2c1-c1c(O)ccc2cc(Br)ccc12 | 2640 nM | 7.41 µM | 2.83 µM | 11 µM | 3.02 µM | 11.3 µM | 2810 nM | 9.1 µM | 1960 nM | 9.92 µM | 3.29 µM | 9.34 µM | 2220 nM | 4.8 µM | 3.31 µM | 12 µM | 1810 nM | 3.41 µM | 3.7 µM | 23.3 µM |
| COc1cc(NS(C)(=O)=O)ccc1Nc1c2ccc(Cl)cc2nc2c(OC)cccc12 | 79.9 nM | 2.17 µM | – | 2.15 µM | 0.0314 µM | 1.5 µM | 595 nM | – | 46.6 nM | 0.698 µM | < 0.0143 µM | 0.505 µM | 826 nM | 5.23 µM | 0.0309 µM | > 91.7 µM | 109 nM | – | 4.47 µM | 73.7 µM |

From PubChem BioAssay (NCI)
